Measurements from ChEMBL document CHEMBL3217613, “Novel thalidomide analogues with potent NFB and TNF expression inhibition” (Medchemcomm, 2011).

Columns and labels:
Format in all cases: cell-based
[1] = molecular target: T1, Nuclear factor NF-kappa-B complex (Homo sapiens) (UniProt Q00653+P19838+Q04206); experiment: Inhibition of NFkappaB in human FRT-Jurkat cells expressing GFP assessed as reduction of TNF expression at 10 uM after 24 hrs by flow cytometry relative to control
Jurkat = experiment: Cytotoxicity against human FRT-Jurkat cells assessed as reduction of cell viability by measuring cleaved caspase 3 at 10 uM by flow cytometer
[2] = molecular target: T1, Nuclear factor NF-kappa-B complex (Homo sapiens); experiment: Inhibition of NFkappaB in human FRT-Jurkat cells expressing GFP assessed as reduction of TNF expression at 100 uM after 24 hrs by flow cytometry relative to control
[3] = molecular target: T1, Nuclear factor NF-kappa-B complex (Homo sapiens); experiment: Ratio of thalidomide to compound for inhibition of NFkappaB in human FRT-Jurkat cells expressing GFP assessed as reduction of TNF expression at 10 uM

T1 sequence (P19838 whole entry, looked up): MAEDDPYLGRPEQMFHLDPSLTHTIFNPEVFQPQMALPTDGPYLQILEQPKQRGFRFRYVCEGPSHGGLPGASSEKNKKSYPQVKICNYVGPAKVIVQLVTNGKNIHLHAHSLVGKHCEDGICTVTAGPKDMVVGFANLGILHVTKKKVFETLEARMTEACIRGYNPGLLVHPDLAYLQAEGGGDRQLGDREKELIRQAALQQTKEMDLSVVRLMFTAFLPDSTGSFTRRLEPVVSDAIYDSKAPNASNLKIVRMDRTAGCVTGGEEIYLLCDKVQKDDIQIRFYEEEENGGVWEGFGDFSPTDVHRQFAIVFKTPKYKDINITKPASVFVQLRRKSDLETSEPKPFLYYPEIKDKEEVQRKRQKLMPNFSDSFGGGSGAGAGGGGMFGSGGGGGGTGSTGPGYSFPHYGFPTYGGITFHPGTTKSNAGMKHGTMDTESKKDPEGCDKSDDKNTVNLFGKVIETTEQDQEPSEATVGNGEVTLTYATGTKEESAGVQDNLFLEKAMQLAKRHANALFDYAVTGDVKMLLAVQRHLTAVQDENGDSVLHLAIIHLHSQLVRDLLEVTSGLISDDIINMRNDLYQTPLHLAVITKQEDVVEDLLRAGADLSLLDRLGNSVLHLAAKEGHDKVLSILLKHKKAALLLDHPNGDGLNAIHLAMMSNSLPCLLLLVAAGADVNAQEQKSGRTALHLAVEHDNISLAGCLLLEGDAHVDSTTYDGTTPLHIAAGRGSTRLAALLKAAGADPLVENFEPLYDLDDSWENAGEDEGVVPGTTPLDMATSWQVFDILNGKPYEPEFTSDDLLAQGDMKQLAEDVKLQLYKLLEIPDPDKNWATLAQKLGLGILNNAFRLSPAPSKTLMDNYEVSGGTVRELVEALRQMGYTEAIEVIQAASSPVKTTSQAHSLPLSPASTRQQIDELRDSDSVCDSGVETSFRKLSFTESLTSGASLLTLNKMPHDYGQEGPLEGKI
T1 sequence (Q00653 whole entry, looked up): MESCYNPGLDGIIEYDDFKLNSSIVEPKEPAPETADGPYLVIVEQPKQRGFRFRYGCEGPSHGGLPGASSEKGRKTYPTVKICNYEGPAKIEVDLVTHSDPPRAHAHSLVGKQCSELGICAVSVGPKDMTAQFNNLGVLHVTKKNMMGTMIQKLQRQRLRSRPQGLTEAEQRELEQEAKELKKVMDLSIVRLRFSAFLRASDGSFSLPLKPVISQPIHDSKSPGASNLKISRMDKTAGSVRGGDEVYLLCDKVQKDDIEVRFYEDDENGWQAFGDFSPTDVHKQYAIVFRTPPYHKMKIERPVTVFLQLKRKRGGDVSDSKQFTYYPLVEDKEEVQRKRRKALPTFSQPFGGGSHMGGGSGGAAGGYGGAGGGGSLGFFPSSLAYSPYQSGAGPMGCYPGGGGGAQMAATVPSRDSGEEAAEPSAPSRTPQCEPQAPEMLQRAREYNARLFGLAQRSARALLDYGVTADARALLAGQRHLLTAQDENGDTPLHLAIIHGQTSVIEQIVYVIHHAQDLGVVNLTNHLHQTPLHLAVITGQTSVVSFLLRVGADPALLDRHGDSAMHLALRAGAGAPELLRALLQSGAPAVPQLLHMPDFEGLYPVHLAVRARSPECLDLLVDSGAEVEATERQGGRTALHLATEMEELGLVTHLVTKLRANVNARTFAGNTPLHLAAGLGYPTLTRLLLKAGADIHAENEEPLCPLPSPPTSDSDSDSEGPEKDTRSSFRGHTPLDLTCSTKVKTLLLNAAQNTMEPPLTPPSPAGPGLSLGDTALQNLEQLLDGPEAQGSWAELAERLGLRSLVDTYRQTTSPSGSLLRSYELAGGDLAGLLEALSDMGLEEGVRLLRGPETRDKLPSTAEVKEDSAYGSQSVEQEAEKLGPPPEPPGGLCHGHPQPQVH
T1 sequence (Q04206 whole entry, looked up): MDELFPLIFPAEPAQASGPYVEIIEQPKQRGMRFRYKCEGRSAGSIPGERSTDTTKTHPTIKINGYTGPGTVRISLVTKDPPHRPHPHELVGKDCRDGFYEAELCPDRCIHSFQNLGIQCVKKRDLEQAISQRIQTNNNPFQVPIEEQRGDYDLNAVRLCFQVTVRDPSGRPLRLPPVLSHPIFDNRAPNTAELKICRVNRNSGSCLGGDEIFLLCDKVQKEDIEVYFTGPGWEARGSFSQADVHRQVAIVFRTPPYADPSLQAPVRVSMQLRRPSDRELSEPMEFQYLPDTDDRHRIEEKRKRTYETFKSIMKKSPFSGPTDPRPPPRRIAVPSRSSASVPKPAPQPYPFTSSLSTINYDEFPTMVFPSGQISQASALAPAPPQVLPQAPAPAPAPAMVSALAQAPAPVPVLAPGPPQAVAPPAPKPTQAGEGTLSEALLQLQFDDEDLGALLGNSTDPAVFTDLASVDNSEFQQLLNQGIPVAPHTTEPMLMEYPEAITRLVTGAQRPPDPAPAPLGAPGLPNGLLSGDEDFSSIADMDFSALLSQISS

CN(c1ccccc1)c1ccc2c(c1)C(=O)N(C1CCC(=O)NC1=O)C2=O (configuration not stated)
inhibition [1]: -2%

Cc1ccccc1Nc1ccc2c(c1)C(=O)N(C1CCC(=O)NC1=O)C2=O (configuration not stated)
inhibition [1]: 2%

CCCc1ccc(Nc2cccc3c2C(=O)N(C2CCC(=O)NC2=O)C3=O)cc1 (configuration not stated)
Activity (Jurkat): 89% | inhibition [1]: 23%

O=C1CCC(N2C(=O)c3ccc(Nc4ccccn4)cc3C2=O)C(=O)N1 (configuration not stated)
inhibition [1]: 9%

CC(=O)c1ccc(Nc2ccc3c(c2)C(=O)N(C2CCC(=O)NC2=O)C3=O)cc1 (configuration not stated)
inhibition [1]: -2%

CC(=O)c1ccc(Nc2cccc3c2C(=O)N(C2CCC(=O)NC2=O)C3=O)cc1 (configuration not stated)
Activity (Jurkat): 89% | inhibition [1]: 2%

O=C1CCC(N2C(=O)c3cccc(Nc4ccccc4)c3C2=O)C(=O)N1 (configuration not stated)
Activity (Jurkat): 89% | inhibition [1]: 4% | inhibition [2]: 16%

CCCCCc1ccc(Nc2ccc3c(c2)C(=O)N(C2CCC(=O)NC2=O)C3=O)cc1 (configuration not stated)
inhibition [1]: 12%

CCc1ccc(Nc2ccc3c(c2)C(=O)N(C2CCC(=O)NC2=O)C3=O)cc1 (configuration not stated)
inhibition [1]: 5%

Nc1cccc2c1CN(C1CCC(=O)NC1=O)C2=O (configuration not stated)
inhibition [1]: 4% | inhibition [2]: 6%

CC(C)c1ccc(Nc2cccc3c2C(=O)N(C2CCC(=O)NC2=O)C3=O)cc1 (configuration not stated)
Activity (Jurkat): 89% | inhibition [1]: 19%

Cc1ccc(Nc2ccc3c(c2)C(=O)N(C2CCC(=O)NC2=O)C3=O)cc1 (configuration not stated)
inhibition [1]: 5%

CCc1ccc(Nc2cccc3c2C(=O)N(C2CCC(=O)NC2=O)C3=O)cc1 (configuration not stated)
Activity (Jurkat): 89% | inhibition [1]: 17%

O=C1CCC(N2C(=O)c3ccccc3C2=O)C(=O)N1 (racemic)
inhibition [1]: 2% | inhibition [2]: 4%

O=C1CCC(N2C(=O)c3cccc(Nc4ccc(O)cc4)c3C2=O)C(=O)N1 (configuration not stated)
Activity (Jurkat): 89% | inhibition [1]: 4%

O=C1CCC(N2C(=O)c3ccc(Nc4ccccc4)cc3C2=O)C(=O)N1 (configuration not stated)
Ratio [3]: 2 | inhibition [1]: 6% | inhibition [2]: 17%

O=C1CCC(N2C(=O)c3ccc(Nc4ccc(O)cc4)cc3C2=O)C(=O)N1 (configuration not stated)
inhibition [1]: 4%

COc1ccc(Nc2cccc3c2C(=O)N(C2CCC(=O)NC2=O)C3=O)cc1 (configuration not stated)
Activity (Jurkat): 89% | inhibition [1]: 13%

CCCCCc1ccc(Nc2cccc3c2C(=O)N(C2CCC(=O)NC2=O)C3=O)cc1 (configuration not stated)
Activity (Jurkat): 89% | inhibition [1]: 23%

Cc1ccc(Nc2cccc3c2C(=O)N(C2CCC(=O)NC2=O)C3=O)cc1 (configuration not stated)
Activity (Jurkat): 89% | inhibition [1]: 9%

CCOC(=O)c1ccc(Nc2ccc3c(c2)C(=O)N(C2CCC(=O)NC2=O)C3=O)cc1 (configuration not stated)
inhibition [1]: 5%

CCCc1ccc(Nc2ccc3c(c2)C(=O)N(C2CCC(=O)NC2=O)C3=O)cc1 (configuration not stated)
inhibition [1]: 10%

CCOC(=O)c1ccc(Nc2cccc3c2C(=O)N(C2CCC(=O)NC2=O)C3=O)cc1 (configuration not stated)
Activity (Jurkat): 89% | inhibition [1]: 10%

CC(C)c1ccc(Nc2ccc3c(c2)C(=O)N(C2CCC(=O)NC2=O)C3=O)cc1 (configuration not stated)
inhibition [1]: 11%

CC(C)(C)c1ccc(Nc2ccc3c(c2)C(=O)N(C2CCC(=O)NC2=O)C3=O)cc1 (configuration not stated)
inhibition [1]: 17%

COc1ccc(Nc2ccc3c(c2)C(=O)N(C2CCC(=O)NC2=O)C3=O)cc1 (configuration not stated)
inhibition [1]: 29%

O=C1CCC(N2C(=O)c3cccc(Nc4ccccn4)c3C2=O)C(=O)N1 (configuration not stated)
Activity (Jurkat): 89% | inhibition [1]: 1%

Cc1ccccc1Nc1cccc2c1C(=O)N(C1CCC(=O)NC1=O)C2=O (configuration not stated)
Activity (Jurkat): 89% | inhibition [1]: 7%

CC(C)(C)c1ccc(Nc2cccc3c2C(=O)N(C2CCC(=O)NC2=O)C3=O)cc1 (configuration not stated)
Activity (Jurkat): 89% | inhibition [1]: 36%
